Laboratory results reported in US4119653A, “Co-ordination compounds of platinum” (Rustenburg Platinum Mines Limited, priority 1976, dated 1978).

Assays:
[1] = system: ADJ/PC6 tumour; assay: Antitumour test, ADJ/PC6 tumour, arachis oil intraperitoneal; type: in vivo, Balb-c white mice
Text: Vehicle: Arachis oil/Intraperitoneal
Subject: Balb-c white mice
(§1) Again as with the results given earlier, the tumour was ADJ/PC6, the vehicle was Arachis oil administered intraperitoneally to Balb-c white mice.

[2] = system: Balb-c white mice; assay: Toxicity (LD50 / deaths), arachis oil intraperitoneal
Text: Vehicle: Arachis oil/Intraperitoneal
Subject: Balb-c white mice
as §1

Compound | % Inhibition ([1]; dose 12 mgm/Kgm, Balb-c mice) [%] | % Inhibition ([1]; dose 60 mgm/Kgm, Balb-c mice) [%] | ED90 ([1]; table 1, doses in mgm/Kgm, Balb-c mice) [mg/kg] | LD50 ([2]; table 1, doses in mgm/Kgm) [mg/kg] | inhib ([1]; table 9, line under Cl4 n-octyl, dose not stated) [%] | LD50 ([2]; table 9) [mg/kg]
[NH2][Pt]([NH2])([OH])([OH])([Cl])[Cl] [trans di-hydroxo complexes of Pt(IV)] | 95.4 | 97.1 | < 12 | 135 |  | 
CCCCCCCCN.CCCCCCCCN.[Cl][Pt]([Cl])([Cl])[Cl] [Cl4 n-octyl] |  |  |  |  | < 20 | 270
